In ChEMBL document CHEMBL1127775, “Orally active prodrugs of quinoline-4-carboxylic acid angiotensin II receptor antagonists” (Bioorg Med Chem Lett, 1994):

Legend:
[1] = Oral bioavailability in rat; format: ADME, organism-based; settings: in vivo
[2] = tested on: Rattus norvegicus; assay: Oral activity determined using the salt-deplete spontaneously hypertensive rat (SHR) model, expressed as percent of maximum decrease in mean arterial pressure at a oral dose of 10 umol/kg for 0-6 hr; format: functional, Artery
[3] = tested on: Rattus norvegicus; assay: Oral activity determined using the salt-deplete spontaneously hypertensive rat (SHR) model, expressed as percent of maximum decrease in mean arterial pressure at a oral dose of 10 umol/kg for 12-18 hr; format: functional, Artery
[4] = tested on: Rattus norvegicus; assay: Oral activity determined using the salt-deplete spontaneously hypertensive rat (SHR) model, expressed as percent of maximum decrease in mean arterial pressure at a oral dose of 10 umol/kg for 18-24 hr; format: functional, Artery
[5] = tested on: Rattus norvegicus; assay: Oral activity determined using the salt-deplete spontaneously hypertensive rat (SHR) model, expressed as percent of maximum decrease in mean arterial pressure at a oral dose of 10 umol/kg for 6-12 hr; format: functional, Artery
[6] = tested on: Rattus norvegicus; assay: Tested for fall in blood pressure on seventh day after dosing; format: functional
[7] = species on record: Oryctolagus cuniculus; assay: Functional antagonism was measured by the ability of a single concentration of compound to block angiotensin II induced contractions in rabbit aortic smooth muscle strips.; settings: Aorta
[8] = tested on: Rattus norvegicus; assay: Oral activity determined using the salt-deplete spontaneously hypertensive rat (SHR) model, expressed as percent of maximum decrease in mean arterial pressure at a oral dose of 30 umol/kg for 0-6 hr; format: functional, Artery
[9] = tested on: Rattus norvegicus; assay: Oral activity determined using the salt-deplete spontaneously hypertensive rat (SHR) model, expressed as percent of maximum decrease in mean arterial pressure at a oral dose of 30 umol/kg for 12-18 hr; format: functional, Artery
[10] = tested on: Rattus norvegicus; assay: Oral activity determined using the salt-deplete spontaneously hypertensive rat (SHR) model, expressed as percent of maximum decrease in mean arterial pressure at a oral dose of 30 umol/kg for 18-24 hr; format: functional, Artery
[11] = tested on: Rattus norvegicus; assay: Oral activity determined using the salt-deplete spontaneously hypertensive rat (SHR) model, expressed as percent of maximum decrease in mean arterial pressure at a oral dose of 30 umol/kg for 6-12 hr; format: functional, Artery

SMILES | bioavailability [1] | Decrease [2] | Decrease [3] | Decrease [4] | Decrease [5] | Blood pressure [6] | Kb [7] | Decrease [8] | Decrease [9] | Decrease [10] | Decrease [11]
CC(C)C(OC(=O)C(C)(C)C)n1nnc(-c2ccccc2-c2ccc(Oc3c(C4CC4)nc4ccccc4c3C(=O)O)cc2)n1 (stereo not given) | 39% | 17% | 20% | 19% | 17% | – | – | – | – | – | –
Cc1oc(=O)oc1COC(=O)c1c(Oc2ccc(-c3ccccc3-c3nn[nH]n3)cc2)c(C2CC2)nc2ccccc12 | 27% | 19% | 23% | 24% | 19% | 45 mmHg | – | – | – | – | –
O=C(O)c1c(Oc2ccc(-c3ccccc3-c3nn[nH]n3)cc2)c(C2CC2)nc2ccccc12 | – | – | – | – | – | – | 0.061 nM | 14% | 21% | 23% | 14%
CCC(=O)OC(OC(=O)c1c(Oc2ccc(-c3ccccc3-c3nn[nH]n3)cc2)c(C2CC2)nc2ccccc12)C(C)C (stereo not given) | – | 7% | 9% | 19% | 5% | – | – | – | – | – | –
CCOC(=O)c1c(Oc2ccc(-c3ccccc3-c3nn[nH]n3)cc2)c(C2CC2)nc2ccccc12 | – | – | – | – | – | – | – | 17% | 25% | 26% | 19%
CCCCc1nc(Cl)c(CO)n1Cc1ccc(-c2ccccc2-c2nnn[nH]2)cc1 [LOSARTAN] | – | – | – | – | – | 20 mmHg | – | – | – | – | –
